Measured values as given in patent US20210177868A1, “NOVEL USE OF PHYTOSTENONE” (Daisankasei Co., Ltd., priority 2018, published 2021).

Legend:
[1] = orally administered, approximately 120 mg/day over 8 weeks; cited from earlier work
SD rats = experiment: application of test substance onto dehaired abdominal skin of fattened SD rats for 2 weeks; weight of each fat measured; format: in vivo, rat; conditions: applied onto abdominal skin, 2 ml of 5 mg/ml ethanol solution daily for 2 weeks, n=3, p<0.05
Procedure: The abdomen of each fat rat was dehaired (20 mm square). Thereafter, 2 ml of a phytostenone-containing composition (30 mg/ml ethanol solution) used as a test substance, 2 ml of campest-5-en-3-one (5 mg/ml ethanol solution) used as a test substance, or 2 ml of an ethanol solution used as a control was applied gently with a cotton to individual rats divided into the groups (n=3 in each group). This operation was carried out continuously for 2 weeks. After termination of the application test, the rats were dissected, and liver fat, epididymal fat, perirenal fat, mesenteric fat, and subcutaneous fat were carefully recovered. Thereafter, the weight of each fat was measured.
Herein, in the present example, the significance test was carried out as follows. First, the mean value±standard error in each group was calculated, and a variance test was then carried out. In the case of equal variance, the significance test was carried out according to the t-test, and in the case of unequal variance, the significance test was carried out according to the Welch method.

CC(C)[C@H](C)CC[C@@H](C)[C@H]1CC[C@H]2[C@@H]3CC=C4CC(=O)CC[C@]4(C)[C@H]3CC[C@]12C [campest-5-en-3-one]
subcutaneous fat reduction percentage [1]: 26%
reduction of the amount of subcutaneous fat compared with the control (ethanol solution) (SD rats): approximately 16%
